Reference: ChEMBL document CHEMBL1909046, “DrugMatrix in vitro pharmacology data”

What was measured:
[1] = target: Aldo-keto reductase family 1 member B1 (Rattus norvegicus, UniProt P07943); assay type: tissue-based, Lens of camera-type eye;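 further: inhibition of aldose reductase enzyme activity, measured with DL-glyceraldehyde as the substrate; in other assays of this panel Not Active means under 50% inhibition at 10 µM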
Melanocortin receptor 4 = Melanocortin receptor 4 (Homo sapiens, UniProt P32245); assay type: cell membranes, Membrane; settings: hek293; further: in other assays of this panel Not Active means under 50% inhibition at 10 µM
Sequence of Melanocortin receptor 4 (P32245 whole entry): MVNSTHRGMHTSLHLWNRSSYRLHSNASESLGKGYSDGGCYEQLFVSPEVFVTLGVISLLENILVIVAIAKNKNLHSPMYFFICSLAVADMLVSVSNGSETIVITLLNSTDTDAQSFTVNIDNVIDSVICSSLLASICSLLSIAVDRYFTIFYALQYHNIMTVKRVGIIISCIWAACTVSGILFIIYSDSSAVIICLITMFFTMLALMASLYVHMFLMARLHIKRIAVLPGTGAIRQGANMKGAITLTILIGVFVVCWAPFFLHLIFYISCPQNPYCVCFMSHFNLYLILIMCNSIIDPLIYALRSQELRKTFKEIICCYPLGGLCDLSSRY

Substance-P receptor = Substance-P receptor (Homo sapiens, UniProt P25103); assay type: cell membranes, CHO, Membrane; settings: cho; further: in other assays of this panel Not Active means under 50% inhibition at 10 µM
Sequence of Substance-P receptor (P25103 whole entry): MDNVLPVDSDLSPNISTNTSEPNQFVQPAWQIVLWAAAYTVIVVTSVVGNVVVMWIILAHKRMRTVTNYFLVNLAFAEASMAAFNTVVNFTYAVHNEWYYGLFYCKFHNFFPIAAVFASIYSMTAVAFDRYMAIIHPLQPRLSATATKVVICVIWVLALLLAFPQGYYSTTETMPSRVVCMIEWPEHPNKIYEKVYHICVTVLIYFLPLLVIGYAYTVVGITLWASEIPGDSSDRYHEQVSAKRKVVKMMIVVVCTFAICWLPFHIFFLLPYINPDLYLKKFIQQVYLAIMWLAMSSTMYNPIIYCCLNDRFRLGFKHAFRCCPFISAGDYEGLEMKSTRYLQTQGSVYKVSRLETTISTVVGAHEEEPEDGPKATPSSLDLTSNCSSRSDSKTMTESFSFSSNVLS

[2] = target: 5-hydroxytryptamine receptor 1B (Rattus norvegicus, UniProt P28564); assay type: cell membranes, Wistar, Cerebral cortex, Membrane; further: in other assays of this panel Not Active means under 50% inhibition at 10 µM
Sequence of 5-hydroxytryptamine receptor 1B (P28564 whole entry): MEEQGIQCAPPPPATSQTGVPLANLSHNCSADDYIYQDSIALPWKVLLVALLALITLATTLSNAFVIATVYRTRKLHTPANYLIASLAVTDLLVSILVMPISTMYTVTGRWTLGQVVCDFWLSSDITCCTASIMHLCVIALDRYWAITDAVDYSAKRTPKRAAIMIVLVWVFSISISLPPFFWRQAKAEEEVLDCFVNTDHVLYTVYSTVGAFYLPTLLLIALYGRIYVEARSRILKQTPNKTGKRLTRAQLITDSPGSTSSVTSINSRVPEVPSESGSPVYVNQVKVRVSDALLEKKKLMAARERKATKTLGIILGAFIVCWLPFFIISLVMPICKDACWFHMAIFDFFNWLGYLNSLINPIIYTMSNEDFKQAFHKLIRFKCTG

[3] = DRUGMATRIX: Imidazoline I2, Central radioligand binding (ligand: [3H] Idazoxan); assay type: cell membranes, Rattus norvegicus, Wistar, Cerebral cortex, Membrane; settings: Not Active = under 50% inhibition at 10 µM
[4] = target: T1, Neuropeptide Y receptor type 2 (Homo sapiens, UniProt P49146); assay type: cell membranes, Membrane; settings: kan-ts; further: in other assays of this panel Not Active means under 50% inhibition at 10 µM
T1 sequence (P49146 whole entry): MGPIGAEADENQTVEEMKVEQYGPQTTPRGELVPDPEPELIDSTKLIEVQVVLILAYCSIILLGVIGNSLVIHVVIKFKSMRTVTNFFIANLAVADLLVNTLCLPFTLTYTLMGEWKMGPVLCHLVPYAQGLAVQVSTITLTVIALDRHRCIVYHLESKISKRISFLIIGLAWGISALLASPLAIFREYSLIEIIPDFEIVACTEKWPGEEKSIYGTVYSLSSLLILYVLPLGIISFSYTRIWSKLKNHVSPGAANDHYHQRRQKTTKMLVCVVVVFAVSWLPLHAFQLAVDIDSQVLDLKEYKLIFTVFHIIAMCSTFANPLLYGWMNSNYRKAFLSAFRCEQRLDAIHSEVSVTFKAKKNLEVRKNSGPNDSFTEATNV

[5] = DRUGMATRIX: Platelet-Derived Growth Factor (PDGF) radioligand binding (ligand: [125I] PDGF); assay type: cell-based; settings: nih3t3; Not Active = under 50% inhibition at 10 µM
[6] = DRUGMATRIX: Glutamate, NMDA, Phencyclidine radioligand binding (ligand: [3H] TCP); assay type: cell membranes, Rattus norvegicus, Wistar, Cerebral cortex, Membrane; settings: Not Active = under 50% inhibition at 10 µM
Estrogen receptor = target: T2, Estrogen receptor (Homo sapiens, UniProt P03372); settings: sf9; further: in other assays of this panel Not Active means under 50% inhibition at 10 µM
T2 sequence (P03372 whole entry): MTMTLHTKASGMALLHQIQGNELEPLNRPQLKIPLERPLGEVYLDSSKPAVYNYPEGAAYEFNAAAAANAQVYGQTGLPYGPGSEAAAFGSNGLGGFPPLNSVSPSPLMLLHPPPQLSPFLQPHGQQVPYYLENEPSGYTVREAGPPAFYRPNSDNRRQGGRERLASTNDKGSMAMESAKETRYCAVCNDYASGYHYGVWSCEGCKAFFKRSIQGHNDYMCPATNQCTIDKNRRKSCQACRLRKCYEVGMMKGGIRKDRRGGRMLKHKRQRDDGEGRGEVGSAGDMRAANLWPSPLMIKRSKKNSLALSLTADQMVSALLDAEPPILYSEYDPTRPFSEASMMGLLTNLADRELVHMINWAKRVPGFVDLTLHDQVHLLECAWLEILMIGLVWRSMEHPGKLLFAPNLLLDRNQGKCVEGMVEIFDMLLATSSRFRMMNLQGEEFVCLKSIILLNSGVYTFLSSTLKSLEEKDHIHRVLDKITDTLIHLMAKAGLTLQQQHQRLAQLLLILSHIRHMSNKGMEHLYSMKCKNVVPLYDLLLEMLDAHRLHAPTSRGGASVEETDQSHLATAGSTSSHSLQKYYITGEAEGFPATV

Adenosine receptor A1 = target: T3, Adenosine receptor A1 (Homo sapiens, UniProt P30542); assay type: cell membranes, CHO, Membrane; settings: cho
T3 sequence (P30542 whole entry): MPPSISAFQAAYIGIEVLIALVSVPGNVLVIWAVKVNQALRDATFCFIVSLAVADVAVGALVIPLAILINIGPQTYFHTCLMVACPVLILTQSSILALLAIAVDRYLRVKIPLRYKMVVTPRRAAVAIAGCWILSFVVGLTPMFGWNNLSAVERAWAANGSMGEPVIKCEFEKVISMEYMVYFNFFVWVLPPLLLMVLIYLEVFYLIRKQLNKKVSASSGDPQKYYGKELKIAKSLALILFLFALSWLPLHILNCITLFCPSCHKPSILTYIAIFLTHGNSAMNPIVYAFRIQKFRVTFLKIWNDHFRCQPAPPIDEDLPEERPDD

[7] = DRUGMATRIX: GABAA, Chloride Channel, TBOB radioligand binding (ligand: [3H] TBOB); assay type: cell membranes, Rattus norvegicus, Wistar, Cerebral cortex, Membrane; settings: Not Active = under 50% inhibition at 10 µM
[8] = DRUGMATRIX: Phosphodiesterase PDE3 enzyme inhibition (substrate: [3H]cAMP + cAMP); assay type: tissue-based, Homo sapiens; settings: platelet; Not Active = under 50% inhibition at 10 µM
D(3) dopamine receptor = D(3) dopamine receptor (Homo sapiens, UniProt P35462); assay: DRUGMATRIX: Dopamine D3 radioligand binding (ligand: [3H] Spiperone); assay type: cell membranes, CHO, Membrane; settings: cho
Sequence of D(3) dopamine receptor (P35462 whole entry): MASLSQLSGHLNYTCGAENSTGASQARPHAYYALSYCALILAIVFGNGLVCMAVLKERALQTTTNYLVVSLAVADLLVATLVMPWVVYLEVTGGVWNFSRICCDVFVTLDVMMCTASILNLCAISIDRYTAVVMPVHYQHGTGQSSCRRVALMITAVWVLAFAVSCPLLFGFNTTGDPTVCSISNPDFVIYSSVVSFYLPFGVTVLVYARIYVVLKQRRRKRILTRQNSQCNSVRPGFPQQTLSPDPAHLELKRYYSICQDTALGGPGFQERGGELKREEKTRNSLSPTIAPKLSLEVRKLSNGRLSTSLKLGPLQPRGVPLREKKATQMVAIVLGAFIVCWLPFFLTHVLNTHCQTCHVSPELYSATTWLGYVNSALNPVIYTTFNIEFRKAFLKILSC

Cytochrome P450 3A4 = Cytochrome P450 3A4 (Homo sapiens, UniProt P08684); settings: bti-tn-5b1-4; further: in other assays of this panel Not Active means under 50% inhibition at 10 µM
Sequence of Cytochrome P450 3A4 (P08684 whole entry): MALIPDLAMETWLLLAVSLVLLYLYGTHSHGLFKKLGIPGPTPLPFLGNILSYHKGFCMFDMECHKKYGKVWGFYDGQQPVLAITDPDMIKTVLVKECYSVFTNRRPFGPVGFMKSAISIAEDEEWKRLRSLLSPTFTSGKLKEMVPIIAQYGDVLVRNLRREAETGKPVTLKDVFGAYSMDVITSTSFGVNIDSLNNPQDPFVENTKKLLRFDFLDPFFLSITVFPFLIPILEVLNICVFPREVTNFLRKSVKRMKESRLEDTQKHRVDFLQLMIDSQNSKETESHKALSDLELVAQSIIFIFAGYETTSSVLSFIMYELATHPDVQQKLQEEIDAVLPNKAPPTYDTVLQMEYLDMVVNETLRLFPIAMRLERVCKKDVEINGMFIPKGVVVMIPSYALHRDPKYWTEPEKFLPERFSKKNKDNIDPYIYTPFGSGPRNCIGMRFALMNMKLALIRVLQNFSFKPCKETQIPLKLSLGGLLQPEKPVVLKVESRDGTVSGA

[9] = target: T4, C-X-C chemokine receptor type 2 (Homo sapiens, UniProt P25025); assay type: cell membranes, Membrane; settings: cho-k1; further: in other assays of this panel Not Active means under 50% inhibition at 10 µM
T4 sequence (P25025 whole entry): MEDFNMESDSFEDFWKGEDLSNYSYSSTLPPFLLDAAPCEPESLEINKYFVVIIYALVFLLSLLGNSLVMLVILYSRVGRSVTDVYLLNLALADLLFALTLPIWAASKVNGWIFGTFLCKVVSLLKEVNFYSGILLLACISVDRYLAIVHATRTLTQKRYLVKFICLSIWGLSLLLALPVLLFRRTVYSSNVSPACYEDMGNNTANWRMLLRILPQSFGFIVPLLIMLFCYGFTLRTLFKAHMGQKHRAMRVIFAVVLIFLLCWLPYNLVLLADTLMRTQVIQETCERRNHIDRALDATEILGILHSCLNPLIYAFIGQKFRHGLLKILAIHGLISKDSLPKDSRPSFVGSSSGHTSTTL

Histamine H2 receptor = Histamine H2 receptor (Homo sapiens, UniProt P25021); assay type: cell membranes, CHO-K1, Membrane; settings: cho-k1; further: in other assays of this panel Not Active means under 50% inhibition at 10 µM
Sequence of Histamine H2 receptor (P25021 whole entry): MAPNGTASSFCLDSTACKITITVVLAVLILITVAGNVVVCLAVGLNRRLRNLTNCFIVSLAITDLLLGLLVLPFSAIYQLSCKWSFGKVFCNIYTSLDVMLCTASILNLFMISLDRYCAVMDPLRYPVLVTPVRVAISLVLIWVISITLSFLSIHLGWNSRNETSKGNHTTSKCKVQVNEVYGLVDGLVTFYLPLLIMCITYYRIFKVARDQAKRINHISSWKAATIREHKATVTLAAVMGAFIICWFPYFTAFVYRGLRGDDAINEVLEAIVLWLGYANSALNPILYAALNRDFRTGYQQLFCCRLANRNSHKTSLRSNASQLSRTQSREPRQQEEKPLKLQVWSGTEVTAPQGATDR

[10] = DRUGMATRIX: Glutamate, NMDA, Agonism radioligand binding (ligand: [3H] CGP-39653); assay type: cell membranes, Rattus norvegicus, Wistar, Cerebral cortex, Membrane; settings: Not Active = under 50% inhibition at 10 µM

CN1CCC[C@H]1c1cccnc1 [NICOTINE]
Not Active: IC50 [1] | IC50 (Melanocortin receptor 4) | IC50 (Substance-P receptor) | IC50 [2] | IC50 [3] | Ki [3] | IC50 [4] | IC50 [5] | Ki [5] | IC50 [6] | Ki [6] | IC50 (Estrogen receptor) | IC50 (Adenosine receptor A1) | IC50 [7] | Ki [7] | IC50 [8] | Ki [8] | IC50 (D(3) dopamine receptor) | IC50 (Cytochrome P450 3A4) | Ki (Cytochrome P450 3A4) | IC50 [9] | IC50 (Histamine H2 receptor) | IC50 [10] | Ki [10]

CC1(C)S[C@@H]2[C@H](NC(=O)[C@H](NC(=O)N3CCNC3=O)c3ccccc3)C(=O)N2[C@H]1C(=O)O [AZLOCILLIN]
Not Active: IC50 [1] | IC50 (Melanocortin receptor 4) | IC50 (Substance-P receptor) | IC50 [2] | IC50 [3] | Ki [3] | IC50 [4] | IC50 [5] | Ki [5] | IC50 [6] | Ki [6] | IC50 (Estrogen receptor) | IC50 (Adenosine receptor A1) | IC50 [7] | Ki [7] | IC50 [8] | Ki [8] | IC50 (D(3) dopamine receptor) | IC50 (Cytochrome P450 3A4) | Ki (Cytochrome P450 3A4) | IC50 [9] | IC50 (Histamine H2 receptor) | IC50 [10] | Ki [10]

OXALIPLATIN
Not Active: IC50 [1] | Ki [1] | IC50 (Melanocortin receptor 4) | Ki (Melanocortin receptor 4) | IC50 (Substance-P receptor) | Ki (Substance-P receptor) | IC50 [2] | Ki [2] | IC50 [3] | Ki [3] | IC50 [4] | Ki [4] | IC50 [5] | Ki [5] | IC50 [6] | Ki [6] | IC50 (Estrogen receptor) | Ki (Estrogen receptor) | IC50 (Adenosine receptor A1) | Ki (Adenosine receptor A1) | IC50 [7] | Ki [7] | IC50 [8] | Ki [8] | IC50 (D(3) dopamine receptor) | Ki (D(3) dopamine receptor) | IC50 (Cytochrome P450 3A4) | Ki (Cytochrome P450 3A4) | IC50 [9] | Ki [9] | IC50 (Histamine H2 receptor) | Ki (Histamine H2 receptor) | IC50 [10] | Ki [10]

CN(C)CCCC1(c2ccc(F)cc2)OCc2cc(C#N)ccc21 (stereo not drawn) [CITALOPRAM]
Not Active: IC50 [1] | IC50 (Melanocortin receptor 4) | IC50 (Substance-P receptor) | IC50 [2] | IC50 [3] | Ki [3] | IC50 [4] | IC50 [5] | Ki [5] | IC50 [6] | Ki [6] | IC50 (Estrogen receptor) | IC50 (Adenosine receptor A1) | IC50 [7] | Ki [7] | IC50 [8] | Ki [8] | IC50 (D(3) dopamine receptor) | IC50 (Cytochrome P450 3A4) | Ki (Cytochrome P450 3A4) | IC50 [9] | IC50 (Histamine H2 receptor) | IC50 [10] | Ki [10]

CCc1cccc2c3c([nH]c12)C(CC)(CC(=O)O)OCC3 (stereo not drawn) [ETODOLAC]
Not Active: IC50 [1] | IC50 (Melanocortin receptor 4) | IC50 (Substance-P receptor) | IC50 [2] | IC50 [3] | Ki [3] | IC50 [4] | IC50 [5] | Ki [5] | IC50 [6] | Ki [6] | IC50 (Estrogen receptor) | IC50 (Adenosine receptor A1) | IC50 [7] | Ki [7] | IC50 [8] | Ki [8] | IC50 (D(3) dopamine receptor) | IC50 (Cytochrome P450 3A4) | Ki (Cytochrome P450 3A4) | IC50 [9] | IC50 (Histamine H2 receptor) | IC50 [10] | Ki [10]

O=c1[nH]cc(F)c(=O)[nH]1 [FLUOROURACIL]
Not Active: IC50 [1] | IC50 (Melanocortin receptor 4) | IC50 (Substance-P receptor) | IC50 [2] | IC50 [3] | Ki [3] | IC50 [4] | IC50 [5] | Ki [5] | IC50 [6] | Ki [6] | IC50 (Estrogen receptor) | IC50 (Adenosine receptor A1) | IC50 [7] | Ki [7] | IC50 [8] | Ki [8] | IC50 (D(3) dopamine receptor) | IC50 (Cytochrome P450 3A4) | Ki (Cytochrome P450 3A4) | IC50 [9] | IC50 (Histamine H2 receptor) | IC50 [10] | Ki [10]

O=C1OC2(c3ccc(O)cc3Oc3cc(O)ccc32)c2ccccc21 [FLUORESCEIN]
Not Active: IC50 [1] | IC50 (Melanocortin receptor 4) | IC50 (Substance-P receptor) | IC50 [2] | IC50 [3] | Ki [3] | IC50 [4] | IC50 [5] | Ki [5] | IC50 [6] | Ki [6] | IC50 (Estrogen receptor) | IC50 (Adenosine receptor A1) | IC50 [7] | Ki [7] | IC50 [8] | Ki [8] | IC50 (D(3) dopamine receptor) | IC50 (Cytochrome P450 3A4) | Ki (Cytochrome P450 3A4) | IC50 [9] | IC50 (Histamine H2 receptor) | IC50 [10] | Ki [10]
